Source: US20230174523A1, “BENZENESULFONAMIDE DERIVATIVES AS TRAP1 MODULATORS AND USES THEREOF” (Amathus Therapeutics, Inc., priority 2020, published 2023)

System: primary rat TH+ dopaminergic neurons
Experiment: ROS production in primary TH+ dopaminergic neurons injured with MPP+
Format: cell-based
Conditions: injury with MPP+ (4 μM, 4 h); FIG. 6
Method: Rat dopaminergic neurons were cultured as described by Visanji et al., 2008. Briefly, pregnant female rat of 15 days of gestation are sacrificed using a deep anesthesia with CO2 chamber and a cervical dislocation. The midbrains obtained from 15-day-old rat embryos are dissected under a microscope. The embryonic midbrains are removed and placed in ice-cold medium of Leibovitz (L15) containing 2% of Penicillin-Streptomycin (PS) and 1% of bovine serum albumin (BSA). The ventral portion of the mesencephalic flexure, a region of the developing brain rich in dopaminergic neurons, is used for the cell preparations.
The midbrains are dissociated by trypsinisation for 20 min at 37° C. (solution at a final concentration of 0.05% trypsin and 0.02% EDTA). […] Viable cells are counted in a Neubauer cytometer using the trypan blue exclusion test. […] Six wells per condition are assessed. […]
For each condition, 20 pictures at 10× magnification (plate 1) or 30 pictures at 20× magnification (representing the whole well area) were automatically taken using ImageXpress®. […] The following read-outs were measured: Analysis of total number of TH neurons (TH positive neuron number), Analysis of the ROS into TH positive neurons, Analysis of caspase 3 positive TH neurons, and Analysis of total neurite network of TH positive neurons (in μm).
All values are expressed as mean+/−SEM (standard error of the mean). […]

Cc1nn(C)c2sc(C(=O)Nc3ccc(F)c(S(=O)(=O)Nc4ccc(Cl)cc4)c3)cc12 [Compound 705]
reactive oxygen species (ROS) production: reduction of ROS
